The source of these data is patent US20140349955A1, “USE OF FLUORINE-CONTAINING WATER SOLUBLE PLATINUM COMPLEX IN PREPARING DRUGS FOR PREVENTION AND TREATMENT OF CANCERS” (GUDUI BIOPHARMA TECHNOLOGY INC., priority 2011, published 2014).

This data set deals with L1210 tumor cells. The data set can be described thus: Antitumor efficacy in L1210 tumor-bearing CDF1 mice (increase in life span). It is filed as in vivo. The protocol: In the following test, antitumor efficacy studies were performed using 8-9 weeks old female CDF1 mice, the average weight of the animal is 20-25 grams. L1210 tumor cells (about 10^5 cells per mouse) were inoculated intraperitoneally. The fluorine-containing water-soluble platinum complexes were used to treat the tumor-bearing animals and the efficacy was compared compared with the clinical platinum antitumor drugs. […] Drugs were administered intraperitoneally on day 1 and day 4 after tumor cell transplantation. The number of experimental animals in each group was 6.
The experimental animals were purchased from Vital River Laboratory Animal Technology Co. Ltd., Tumor cells L1210-leukemia cells were purchased from Shanghai An Yan Commercial Trade Co. Ltd.
The increase in life span (ILS) is calculated as follows:
Wherein, St=the weighted median survival time of treated animals; Su=the weighted median survival time of untreated animals

[1] abbreviates: 1.25 mg/Kg i.p. on day 1 and day 4.
Where [2] appears, read: 2.5 mg/Kg i.p. on day 1 and day 4.
Setting [3] is: 5.0 mg/Kg i.p. on day 1 and day 4.
The mark [4] stands for this setting: 50 mg/Kg i.p. on day 1 and day 4.
[5] abbreviates: 100 mg/Kg i.p. on day 1 and day 4.
[6] abbreviates: 200 mg/Kg i.p. on day 1 and day 4.

A value given as a limit tells only on which side of the number the result lay.

Turning to `N.N.[Cl][Pt][Cl]` [Cisplatin], the “ILS (%)” value runs as follows: under setting [1], 36%; under setting [2], 100%; under setting [3], 236%. For the same compound, the “Survived Animals on Day 42” value is 0/6 under setting [1], 0/6 under setting [2] and 3/6 under setting [3].

With `[NH2][Pt]1([NH2])[O]C(=O)C(F)(CCCOC2OC(CO)C(O)C(O)C2O)C(=O)[O]1` (stereo not drawn) [Complex 15], the “ILS (%)” value reads like this: under setting [4], more than 380%; under setting [5], more than 380%; under setting [6], more than 380%. Besides, the “Survived Animals on Day 42” value is listed as 6/6 under setting [4], 6/6 under setting [5] and 6/6 under setting [6]. In addition, under “50 mg/Kg i.p. on day 1 and day 4, weight changes from the first day to the seventh day”, the “Weight Changes (g)” value is reported as “+1.0 g”. For the same compound, the “Weight Changes” value (100 mg/Kg i.p. on day 1 and day 4, weight changes from the first day to the seventh day) was -0.3 g; the “Weight Changes” value (200 mg/Kg i.p. on day 1 and day 4, weight changes from the first day to the seventh day) is -0.8 g.
